{"source": "BigSolDB 2.1"}
{"smiles": "N#Cc1ccc(C(c2ccc(C#N)cc2)n2cncn2)cc1", "values": [{"measurement": "solubility (mole fraction)", "setting": "in THF, 283.15 K", "value": 0.0164}, {"measurement": "solubility (mole fraction)", "setting": "in THF, 288.15 K", "value": 0.0184}, {"measurement": "solubility (mole fraction)", "setting": "in THF, 293.15 K", "value": 0.0206}, {"measurement": "solubility (mole fraction)", "setting": "in THF, 298.15 K", "value": 0.0229}, {"measurement": "solubility (mole fraction)", "setting": "in THF, 303.15 K", "value": 0.0254}, {"measurement": "solubility (mole fraction)", "setting": "in THF, 308.15 K", "value": 0.0281}, {"measurement": "solubility (mole fraction)", "setting": "in THF, 313.15 K", "value": 0.0309}, {"measurement": "solubility (mole fraction)", "setting": "in THF, 318.15 K", "value": 0.034}, {"measurement": "solubility (mole fraction)", "setting": "in THF, 323.15 K", "value": 0.0373}, {"measurement": "solubility (mole fraction)", "setting": "in acetone, 283.15 K", "value": 0.0147}, {"measurement": "solubility (mole fraction)", "setting": "in acetone, 288.15 K", "value": 0.0168}, {"measurement": "solubility (mole fraction)", "setting": "in acetone, 293.15 K", "value": 0.019}, {"measurement": "solubility (mole fraction)", "setting": "in acetone, 298.15 K", "value": 0.0214}, {"measurement": "solubility (mole fraction)", "setting": "in acetone, 303.15 K", "value": 0.0241}, {"measurement": "solubility (mole fraction)", "setting": "in acetone, 308.15 K", "value": 0.027}, {"measurement": "solubility (mole fraction)", "setting": "in acetone, 313.15 K", "value": 0.0301}, {"measurement": "solubility (mole fraction)", "setting": "in acetone, 318.15 K", "value": 0.0335}, {"measurement": "solubility (mole fraction)", "setting": "in acetone, 323.15 K", "value": 0.0371}, {"measurement": "solubility (mole fraction)", "setting": "in acetonitrile, 283.15 K", "value": 0.00638}, {"measurement": "solubility (mole fraction)", "setting": "in acetonitrile, 288.15 K", "value": 0.0077}, {"measurement": "solubility (mole fraction)", "setting": "in acetonitrile, 293.15 K", "value": 0.00923}, {"measurement": "solubility (mole fraction)", "setting": "in acetonitrile, 298.15 K", "value": 0.011}, {"measurement": "solubility (mole fraction)", "setting": "in acetonitrile, 303.15 K", "value": 0.0131}, {"measurement": "solubility (mole fraction)", "setting": "in acetonitrile, 308.15 K", "value": 0.0154}, {"measurement": "solubility (mole fraction)", "setting": "in acetonitrile, 313.15 K", "value": 0.018}, {"measurement": "solubility (mole fraction)", "setting": "in acetonitrile, 318.15 K", "value": 0.021}, {"measurement": "solubility (mole fraction)", "setting": "in acetonitrile, 323.15 K", "value": 0.0244}, {"measurement": "solubility (mole fraction)", "setting": "in ethanol, 283.15 K", "value": 0.000456}, {"measurement": "solubility (mole fraction)", "setting": "in ethanol, 288.15 K", "value": 0.000586}, {"measurement": "solubility (mole fraction)", "setting": "in ethanol, 293.15 K", "value": 0.000748}, {"measurement": "solubility (mole fraction)", "setting": "in ethanol, 298.15 K", "value": 0.000946}, {"measurement": "solubility (mole fraction)", "setting": "in ethanol, 303.15 K", "value": 0.00119}, {"measurement": "solubility (mole fraction)", "setting": "in ethanol, 308.15 K", "value": 0.00148}, {"measurement": "solubility (mole fraction)", "setting": "in ethanol, 313.15 K", "value": 0.00183}, {"measurement": "solubility (mole fraction)", "setting": "in ethanol, 318.15 K", "value": 0.00225}, {"measurement": "solubility (mole fraction)", "setting": "in ethanol, 323.15 K", "value": 0.00275}, {"measurement": "solubility (mole fraction)", "setting": "in ethyl acetate, 283.15 K", "value": 0.00527}, {"measurement": "solubility (mole fraction)", "setting": "in ethyl acetate, 288.15 K", "value": 0.00609}, {"measurement": "solubility (mole fraction)", "setting": "in ethyl acetate, 293.15 K", "value": 0.007}, {"measurement": "solubility (mole fraction)", "setting": "in ethyl acetate, 298.15 K", "value": 0.00802}, {"measurement": "solubility (mole fraction)", "setting": "in ethyl acetate, 303.15 K", "value": 0.00914}, {"measurement": "solubility (mole fraction)", "setting": "in ethyl acetate, 308.15 K", "value": 0.0104}, {"measurement": "solubility (mole fraction)", "setting": "in ethyl acetate, 313.15 K", "value": 0.0117}, {"measurement": "solubility (mole fraction)", "setting": "in ethyl acetate, 318.15 K", "value": 0.0132}, {"measurement": "solubility (mole fraction)", "setting": "in ethyl acetate, 323.15 K", "value": 0.0148}, {"measurement": "solubility (mole fraction)", "setting": "in methanol, 283.15 K", "value": 0.00108}, {"measurement": "solubility (mole fraction)", "setting": "in methanol, 288.15 K", "value": 0.00133}, {"measurement": "solubility (mole fraction)", "setting": "in methanol, 293.15 K", "value": 0.00163}, {"measurement": "solubility (mole fraction)", "setting": "in methanol, 298.15 K", "value": 0.00198}, {"measurement": "solubility (mole fraction)", "setting": "in methanol, 303.15 K", "value": 0.00239}, {"measurement": "solubility (mole fraction)", "setting": "in methanol, 308.15 K", "value": 0.00287}, {"measurement": "solubility (mole fraction)", "setting": "in methanol, 313.15 K", "value": 0.00342}, {"measurement": "solubility (mole fraction)", "setting": "in methanol, 318.15 K", "value": 0.00406}, {"measurement": "solubility (mole fraction)", "setting": "in methanol, 323.15 K", "value": 0.00479}, {"measurement": "solubility (mole fraction)", "setting": "in methyl acetate, 283.15 K", "value": 0.0105}, {"measurement": "solubility (mole fraction)", "setting": "in methyl acetate, 288.15 K", "value": 0.0119}, {"measurement": "solubility (mole fraction)", "setting": "in methyl acetate, 293.15 K", "value": 0.0135}, {"measurement": "solubility (mole fraction)", "setting": "in methyl acetate, 298.15 K", "value": 0.0151}, {"measurement": "solubility (mole fraction)", "setting": "in methyl acetate, 303.15 K", "value": 0.017}, {"measurement": "solubility (mole fraction)", "setting": "in methyl acetate, 308.15 K", "value": 0.019}, {"measurement": "solubility (mole fraction)", "setting": "in methyl acetate, 313.15 K", "value": 0.0211}, {"measurement": "solubility (mole fraction)", "setting": "in methyl acetate, 318.15 K", "value": 0.0234}, {"measurement": "solubility (mole fraction)", "setting": "in methyl acetate, 323.15 K", "value": 0.0259}, {"measurement": "solubility (mole fraction)", "setting": "in n-propanol, 283.15 K", "value": 0.000351}, {"measurement": "solubility (mole fraction)", "setting": "in n-propanol, 288.15 K", "value": 0.000461}, {"measurement": "solubility (mole fraction)", "setting": "in n-propanol, 293.15 K", "value": 0.0006}, {"measurement": "solubility (mole fraction)", "setting": "in n-propanol, 298.15 K", "value": 0.000773}, {"measurement": "solubility (mole fraction)", "setting": "in n-propanol, 303.15 K", "value": 0.000989}, {"measurement": "solubility (mole fraction)", "setting": "in n-propanol, 308.15 K", "value": 0.00125}, {"measurement": "solubility (mole fraction)", "setting": "in n-propanol, 313.15 K", "value": 0.00158}, {"measurement": "solubility (mole fraction)", "setting": "in n-propanol, 318.15 K", "value": 0.00197}, {"measurement": "solubility (mole fraction)", "setting": "in n-propanol, 323.15 K", "value": 0.00245}]}
